Measured values taken from patent publication US7351714B2, “7-imino derivatives of camptothecin having antitumor activity” (priority 2004, dated 2008).

Tests used:
[1] = test system: NCI H460; assay: antiproliferative activity test (cytotoxic activity) on human tumour cells; assay type: cell-based; details: H-460
Procedure: Cytotoxic activity of the compounds of the present invention was assayed in cell systems of human tumour cells, using the antiproliferative activity test as a method of evaluation of the cytotoxic potential.
The cell line used is a lung non-small cell carcinoma that belongs to non-small cells hystotype named NCI H460.

[2] = test system: MKN-28 human gastric carcinoma; assay: antitumor activity per os in athymic nude mice bearing s.c. tumor xenograft; assay type: in vivo; details: q4dx4; for TVI % (Tumor volume inhibition % in treated over control tumors): 11-12 day after last treatment
Text: A compound is considered active when TVI %≧50.

[3] = cited from earlier work

SMILES | IC50 [1] [µM] | other results
CC[C@@]1(O)C(=O)OCc2c1cc1n(c2=O)Cc2c-1nc1ccccc1c2C=Nc1ccccc1SC [ST2138, 7-(2-methylthiophenyl)iminomethylcamptothecin] | 0.06 | –
CC[C@@]1(O)C(=O)OCc2c1cc1n(c2=O)Cc2c-1nc1ccccc1c2C=Nc1ccc(Cl)cc1 [ST2412, 7-(4-chlorophenyl)iminomethylcamptothecin] | 0.08 | –
CC[C@@]1(O)C(=O)OCc2c1cc1n(c2=O)Cc2c-1nc1ccccc1c2C=Nc1ccccc1Cl [ST2228, 7-(2-chlorophenyl)iminomethylcamptothecin] | 0.07 | –
CC[C@@]1(O)C(=O)OCc2c1cc1n(c2=O)Cc2c-1nc1ccccc1c2C=Nc1ccc(SSc2ccc(N)cc2)cc1 [ST2034, 7-4-(4-aminophenyldithio)phenyliminomethylcamptothecin] | 0.39 | –
CC[C@@]1(O)C(=O)OCc2c1cc1n(c2=O)Cc2c-1nc1ccccc1c2C=Nc1ccc([N+](=O)[O-])cc1 [ST1561, 7-(4-nitrophenyl)iminomethylcamptothecin] | 0.28 | –
CC[C@@]1(O)C(=O)OCc2c1cc1n(c2=O)Cc2c-1nc1ccccc1c2C=Nc1ccccc1SSc1ccccc1N [ST1737, 7-2-(2-aminophenyldithio)phenyliminomethylcamptothecin] | 0.017 | Tox (Dead/treated mice) ([2]; 4 mg/kg per os): 0/4; TVI % (Tumor volume inhibition % in treated over control tumors) ([2]; 4 mg/kg per os): 69%; Tox (Dead/treated mice) ([2]; 7 mg/kg per os): 0/4; TVI % (Tumor volume inhibition % in treated over control tumors) ([2]; 7 mg/kg per os): 56%; BWL % (Body weight loss % induced by drug treatment) ([2]; 12 mg/kg per os): 4%; Tox (Dead/treated mice) ([2]; 12 mg/kg per os): 0/4; TVI % (Tumor volume inhibition % in treated over control tumors) ([2]; 12 mg/kg per os): 68%
CC[C@@]1(O)C(=O)OCc2c1cc1n(c2=O)Cc2c-1nc1ccccc1c2C=Nc1ccccc1O [ST2389, 7-(2-hydroxyphenyl)iminomethylcamptothecin] | 0.06 | –
CC[C@@]1(O)C(=O)OCc2c1cc1n(c2=O)Cc2c-1nc1ccccc1c2C=Nc1ccccc1I [ST2316, 7-(2-iodophenyl)iminomethylcamptothecin] | 0.06 | –
CC[C@@]1(O)C(=O)OCc2c1cc1n(c2=O)Cc2c-1nc1ccccc1c2C=Nc1ccccc1C [ST2212, 7-(2-methylphenyl)iminomethylcamptothecin] | 0.1 | –
CC[C@@]1(O)C(=O)OCc2c1cc1n(c2=O)Cc2c-1nc1ccccc1c2C=Nc1ccccc1OC [ST2343, 7-(2-methoxyphenyl)iminomethylcamptothecin] | 0.06 | –
CCC1(O)C(=O)OCc2c1cc1n(c2=O)Cc2c-1nc1ccccc1c2C=Nc1ccc(C(C)(C)C)cc1 (stereo not shown) [ST 2619, 7-(4-tert-butylphenyliminomethyl)-camptothecin] | 0.09 | –
CC[C@@]1(O)C(=O)OCc2c1cc1n(c2=O)Cc2c-1nc1ccccc1c2C=Nc1c(C)cccc1C [ST2317, 7-(2,6-dimethylphenyl)iminomethylcamptothecin] | 0.15 | –
CC[C@@]1(O)C(=O)OCc2c1cc1n(c2=O)Cc2c-1nc1ccccc1c2C=Nc1ccc(OC)cc1 [ST2477, 7-(4-methoxyphenyl)iminomethylcamptothecin] | 0.16 | –
CCC1(O)C(=O)OCc2c1cc1n(c2=O)Cc2c-1nc1ccccc1c2C=Nc1ccc(C)cc1 (stereo not shown) [ST2478, 7-(4-methylphenyl)iminomethylcamptothecin] | 0.18 | –
CC[C@@]1(O)C(=O)OCc2c1cc1n(c2=O)Cc2cc3c(CN(C)C)c(O)ccc3nc2-1 [Topotecan] | – | level in the cerebrospinal fluid with respect to plasma ([3]; 10 minutes after infusion): 30%; lactone form hydrolysed to open ring ([3]; 30 minutes after infusion): 50%
CCC1(O)C(=O)OCc2c1cc1n(c2=O)Cc2c-1nc1ccccc1c2C=Nc1ccc(O)cc1 (stereo not shown) [ST 2616, 7-(4-hydroxyphenyliminomethyl)-camptothecin] | 0.22 | –
CC[C@@]1(O)C(=O)OCc2c1cc1n(c2=O)Cc2c-1nc1ccccc1c2C=Nc1ccccc1 [ST1546, 7-phenyliminomethylcamptothecin] | 0.13 | –
CC[C@@]1(O)C(=O)OCc2c1cc1n(c2=O)Cc2c-1nc1ccccc1c2C=Nc1ccc(Sc2ccc(N)cc2)cc1 [ST2069, 7-4-(4-aminophenylthio)phenyliminomethylcamptothecin] | 0.24 | –
CCC1(O)C(=O)OCc2c1cc1n(c2=O)Cc2c-1nc1ccccc1c2C=Nc1ccc(SC)cc1 (stereo not shown) [ST 2667, 7-(4-methylthiophenyliminomethyl)-camptothecin] | 0.074 | –
CC[C@@]1(O)C(=O)OCc2c1cc1n(c2=O)Cc2c-1nc1ccccc1c2C=Nc1ccccc1C(C)(C)C [ST2388, 7-(2-t-butylphenyl)iminomethylcamptothecin] | 0.07 | –
